Results from patent US7439017B2, “Assays for measuring nucleic acid binding proteins and enzyme activities” (BioVeris Corporation, priority 1998, dated 2008).

Tested on: DNA substrate containing the NFkβ consensus sequence
Test: DNase protection assay for DNA-protein interactions (ECL)
Assay type: binding
Protocol: This example illustrates the use of the invention to measure protein-DNA interactions, specifically, the binding of the transcription factor NFkβ with its consensus DNA sequence. A schematic depicting the assay format can be found in the detailed description of the invention. DNAse 1 and NFkβ were purchased from Promega Corp. A DNA substrate containing a consensus DNA sequence for NFk was prepared by Midland Certified Reagent Co. by solid phase synthesis. The sequence of the substrate is shown below. The nucleotides shown in brackets were linked by phosphorothioate linkages; the other linkages were standard phosphodiester bonds. […]
The labeled DNA substrate (50 fmol), poly dI-dC (1 ug, to reduce non-specific protein-DNA interactions) and varying amounts of recombinant NFkβ (p50 subunit) were combined in a 20 uL volume and incubated for 30 min. at room temperature. […] The reaction mixture was introduced into an ORIGEN Analyzer (IGEN International) running in Magnetic Capture Mode and the ECL signal from RuBpy on the magnetic beads was determined in the presence of a solution containing tripropylamine (ORIGEN Assay Buffer, IGEN International). […]
The specificity of the assay was determined by replacing the specific binding protein NFkβ with other DNA binding proteins specific for sequences not present on the DNA substrate (the phosphorothioate containing substrate was used).

Substance: AP-2: DNA binding protein specific for sequences not present on the DNA substrate
- nuclease protection of the DNA substrate containing the NFkβ consensus sequence (in words): no ability to protect against nuclease attack
- ECL Signal (specificity test, DNase added, phosphorothioate containing NFkβ consensus substrate): 32289
